Paper PMC4735555, “Crystal structure of the N-myristoylated lipopeptide-bound MHC class I complex” (Nature Communications, 2016)

Assays:
[1] = system: 2N5.1 (plate-coated Mamu-B*098); test: T-cell assay with plate-coated Mamu-B*098, IFN-γ release by 2N5.1; format: cell-based, rhesus macaque; settings: 10 μg MHC protein, 1 μg lipopeptide loaded overnight 37 °C; 5 × 10^4 T cells per well, 24 h; IFN-γ ELISA
Text: (§1) Single-chain MHC proteins in which β2m was linked via a Gly-Ser linker (GGGGSGGSGSGGGSS) to the ectodomain of either Mamu-B*098 or Mamu-A*02, followed by a biotinylation sequence peptide (LHHILDAQKMVWNHR), were also expressed in E. coli and were purified in a similar manner to the trimer complex of Mamu-B*098, β2m and C14nef5. The β2m-linked Mamu-B*098 protein was refolded without C14nef5, whereas the β2m-linked Mamu-A*02 protein was refolded in the presence of the YY9 peptide (YTSGPGIRY). These recombinant proteins (3 mg) were biotinylated by being incubated for 12 h at 20 °C with 2 μg of BirA enzyme (Sigma-Aldrich, St Louis, MO) in a biotinylation buffer containing 100 mM Tris-HCl pH 8.0, 5 mM MgCl2, 4.5 mM ATP and 4 mM D-biotin, and were purified by size-exclusion chromatography.
Streptavidin-coated 96-well plates (Thermo Scientific, Hudson, NH) were overlaid with 10 μg of the biotinylated β2m-linked Mamu-B*098 and Mamu-A*02 proteins, and lipopeptide Ags (1 μg) were loaded by an overnight incubation at 37 °C. The wells were then washed extensively and T cells (5 × 10^4 per well) were added. After a 24-h incubation at 37 °C, aliquots of the culture supernatants were collected and the amount of IFN-γ released into the medium was measured by a human/monkey IFN-γ enzyme-linked immunosorbent assay kit (Mabtech, Nacka Strand, Sweden).

Mamu-B*098 = test: Biolayer interferometry binding to β2m-linked Mamu-B*098; set-up: species or system rhesus macaque; settings: Octet RED96; biotinylated β2m-linked Mamu-B*098; lipopeptide 10 μM, 45 min, then 30 min without; 20 mM Tris-HCl pH 7.5, 150 mM NaCl, 2% DMSO; 30 °C; representative of three independent experiments
Text: as §1
(§2) The binding of ligands to MHC class I molecules was analysed using the Octet RED96 system equipped with a streptavidin-conjugated biosensor (Pall ForteBio, Menlo Park, CA) according to the manufacturer's instructions. Biotinylated β2m-linked Mamu-B*098 and Mamu-A*02 proteins were immobilized on the sensor tip surface with a signal magnitude of ∼5.0 nm. […] After reference subtraction, binding signals were analysed using the BIAevaluation 3.1 software. […]

2N5.1 TCR = test: SPR binding of soluble 2N5.1 TCR to peptide-loaded Mamu-A*02; set-up: species or system rhesus macaque; settings: in words; Biacore 3000, 30 °C; soluble 2N5.1 TCR αβ dimer; YY9 peptide-loaded Mamu-A*02 immobilized; pH 7.5
Text: as §1
TCR dimers were generated by the disulfide-linked TCR method. […]
as §2, with “instructions.” for “instructions. Biotinylated β2m-linked Mamu-B*098 and Mamu-A*02 proteins were immobilized on the sensor tip surface with a signal magnitude of ∼5.0 nm.”

Substance	IFN-γ response of 2N5.1 to plate-coated Mamu-B*098 with lipopeptide Ag [1]	physical interaction with immobilized Mamu-B*098 (biolayer interferometry) (Mamu-B*098)	interaction of 2N5.1 TCR with peptide-loaded Mamu-A*02 (SPR) (2N5.1 TCR)
C14-GGAAS	failed to stimulate 2N5.1 even in the presence of Mamu-B*098	bound to B*098	
YTSGPGIRY [YY9, YY9 peptide (…)]			no interaction was detected
